# Laboratory results taken from US9029544B2, “Tricyclic pyridine derivatives, medicaments containing such compounds, their use and process for their preparation” (Boehringer Ingelheim International GmbH, priority 2010, dated 2015).
# pIC50: −log10 of the molar value.
# Target: T1, Recombinant human CETP (Homo sapiens, UniProt P11597)
# T1 construct: made in house; host or cells: CHO cells (secreted into conditioned medium)
# T1 sequence (P11597 18-493): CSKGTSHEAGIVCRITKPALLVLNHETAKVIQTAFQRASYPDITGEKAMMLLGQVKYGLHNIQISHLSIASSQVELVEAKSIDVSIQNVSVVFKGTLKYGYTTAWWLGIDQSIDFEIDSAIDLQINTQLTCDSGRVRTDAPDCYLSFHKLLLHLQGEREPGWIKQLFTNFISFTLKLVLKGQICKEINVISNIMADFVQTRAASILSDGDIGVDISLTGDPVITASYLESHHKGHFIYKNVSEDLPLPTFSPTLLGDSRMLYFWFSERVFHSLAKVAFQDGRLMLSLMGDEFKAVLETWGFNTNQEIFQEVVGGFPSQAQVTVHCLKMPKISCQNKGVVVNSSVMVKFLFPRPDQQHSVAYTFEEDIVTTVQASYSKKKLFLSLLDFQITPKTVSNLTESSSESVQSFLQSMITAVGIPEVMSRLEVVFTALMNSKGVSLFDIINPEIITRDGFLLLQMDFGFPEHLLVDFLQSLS
# Experiment: CETP in vitro assay (fluorometric assay, Roar Biomedical; cholesterol ester transfer from HDL to LDL)
# Assay type: biochemical
# Details: recombinant human CETP from CHO cells; 3 hours at 37° C.; fluorescence 485/535 nm; compound concentrations between 1 nM and 30 μM; read-out: IC50 values for inhibition of CETP
# Experimental: CETP inhibitory activity of compounds of the present invention can be determined in a fluorometric assay purchased from Roar Biomedical, Inc. (New York, N.Y., USA). […] Recombinant human CETP was partially purified from medium conditioned by CETP expressing CHO cells. In a 384 well format 2.5 μl of compound solution in DMSO was combined with 2 μl of donor solution, 2 μl of acceptor solution and 0.8 μl of recombinant human CETP solution in a total volume of 100 μl with assay buffer and incubated for 3 hours at 37° C. The fluorescence intensity was measured at excitation wavelength of 485 nm and emission wavelength of 535 nm. IC50 values are calculated from dose effect curves from compound concentrations between 1 nM and 30 μM.
row,SMILES,pIC50
1,"CC(C)c1nc2c(c3c1[C@@H](c1ccc(C(F)(F)F)cc1F)OC31CCOCC1)[C@@H](O)CC(C)(C)[C@@H]2O [Example 6, (3S,6S,9S)-3-(2-fluoro-4-(trifluoromethyl)phenyl)-4-isopropyl-7,7-dimethyl-2′,3′,5′,6,6′,7,8,9-octahydro-3H-spiro[furo[3,4-c]quinoline-1,4′-pyran]-6,9-diol]",6.39
2,"CC(C)c1nc2c(c3c1[C@H](c1ccc(C(F)(F)F)cn1)OC31CCC(F)(F)CC1)[C@@H](O)CC(C)(C)C2 (single isomer, unassigned) [7 (Diastereomer 2), (3′R,9′S)-4,4-difluoro-4′-isopropyl-7′,7′-dimethyl-3′-(5-(trifluoromethyl)pyridin-2-yl)-6′,7′,8′,9′-tetrahydro-3′H-spiro[cyclohexane-1,1′-furo[3,4-c]quinolin]-9′-ol]",5.94
3,"CC(C)c1nc2c(c3c1[C@@H](c1ccc(S(F)(F)(F)(F)F)cc1)OC31CCOCC1)[C@@H](O)CC(C)(C)C2 [1(68), (3R,9S)-4-isopropyl-7,7-dimethyl-3-(4-(pentafluorosulfanyl)phenyl)-2′,3′,5′,6,6′,7,8,9-octahydro-3H-spiro[furo[3,4-c]quinoline-1,4′-pyran]-9-ol]",7.62
4,"CC1(C)C[C@H](O)c2c(nc(C3CCOCC3)c3c2C2(CCOCC2)O[C@@H]3c2ccc(C(F)(F)F)c(C#N)c2)[C@@H]1O [4(9), 5-((3R,6R,9S)-6,9-dihydroxy-7,7-dimethyl-4-(tetrahydro-2H-pyran-4-yl)-2′,3′,5′,6,6′,7,8,9-octahydro-3H-spiro[furo[3,4-c]quinoline-1,4′-pyran]-3-yl)-2-(trifluoromethyl)benzonitrile]",6.83
5,"CC(C)c1nc2c(c3c1[C@@H](c1ncc(C(F)(F)F)cc1F)OC31CCOCC1)[C@@H](O)CC(C)(C)C2 [5(2), (3S,9S)-3-(3-fluoro-5-(trifluoromethyl)pyridin-2-yl)-4-isopropyl-7,7-dimethyl-2′,3′,5′,6,6′,7,8,9-octahydro-3H-spiro[furo[3,4-c]quinoline-1,4′-pyran]-9-ol]",6.69
6,"COC(C)c1nc2c(c3c1[C@@H](c1ccc(C(F)(F)F)cc1)OC31CCOCC1)[C@@H](O)CC(C)(C)C2 (stereo partly drawn) [1(81), (3R,9S)-4-(1-methoxyethyl)-7,7-dimethyl-3-(4-(trifluoromethyl)phenyl)-2′,3′,5′,6,6′,7,8,9-octahydro-3H-spiro[furo[3,4-c]quinoline-1,4′-pyran]-9-ol]",6.97
7,"O[C@H]1CC2(CCC2)Cc2nc(C3CCOCC3)c3c(c21)C1(CCOCC1)O[C@@H]3c1ccc(C(F)(F)F)nc1 [1(78), (3R,9S)-7,7-(propan-1,3-diyl)-4-(tetrahydro-2H-pyran-4-yl)-3-(6-(trifluoromethyl)pyridin-3-yl)-2′,3′,5′,6,6′,7,8,9-octahydro-3H-spiro[furo[3,4-c]quinoline-1,4′-pyran]-9-ol]",6.44
8,"CC(C)c1nc2c(c3c1[C@@H](c1ccc(C(F)(F)F)nc1)OC31CCCC1)[C@@H](O)CC(C)(C)[C@H]2O [4(1), (3′R,6′R,9′S)-4′-isopropyl-7′,7′-dimethyl-3′-(6-(trifluoromethyl)pyridin-3-yl)-6′,7′,8′,9′-tetrahydro-3′H-spiro[cyclopentane-1,1′-furo[3,4-c]quinoline]-6′,9′-diol]",6.90
9,"CC(C)c1nc2c(c3c1[C@@H](c1ccc(C(F)(F)F)cc1F)OC31CCOCC1)[C@@H](O)CC(C)(C)C2 [1(55), (3S,9S)-3-(2-fluoro-4-(trifluoromethyl)phenyl)-4-isopropyl-7,7-dimethyl-2′,3′,5′,6,6′,7,8,9-octahydro-3H-spiro[furo[3,4-c]quinoline-1,4′-pyran]-9-ol]",7.59
10,"CC(C)c1nc2c(c3c1[C@@H](c1ccc(C4(C)COC4)cc1)OC31CCOCC1)[C@@H](O)CC(C)(C)C2 [1(64), (3R,9S)-4-isopropyl-7,7-dimethyl-3-(4-(3-methyloxetan-3-yl)phenyl)-2′,3′,5′,6,6′,7,8,9-octahydro-3H-spiro[furo[3,4-c]quinoline-1,4′-pyran]-9-ol]",7.07
